Data from ChEMBL document CHEMBL1156251, “Structure--activity relationships of polymyxin antibiotics” (J Med Chem, 2010).
≈ marks a conversion by molar mass, not a printed value.

Legend:
[1] = system: Escherichia coli; test: Antimicrobial activity against Escherichia coli; format: functional
[2] = system: Klebsiella pneumoniae; test: Antimicrobial activity against Klebsiella pneumoniae; format: functional
[3] = system: Pseudomonas aeruginosa; test: Antimicrobial activity against Pseudomonas aeruginosa; format: functional, organism-based
[4] = system: Escherichia coli; test: Antimicrobial activity against Escherichia coli at 10 ug/mL; format: functional

MIC [1] [µg/mL] | MIC [2] [µg/mL] | MIC [3] [µg/mL] | Structure (SMILES) | GI [4] [square millimeter]
≥ 500 | ≥ 500 | ≥ 500 | CC(C)C[C@@H]1NC(=O)[C@@H](Cc2ccccc2)NC(=O)[C@H](CCN)NC(=O)[C@@H](NC(=O)[C@H](CCN)NC(=O)[C@H](NC(=O)[C@H](C)NC(=O)[C@@H](C)NC(=O)[C@H](C)N)[C@@H](C)O)CCNC(=O)[C@@H]([C@@H](C)O)NC(=O)[C@H](CCN)NC(=O)[C@H](CCN)NC1=O | 
0.8 (≈ 0.675 µM) | 62 (≈ 52.3 µM) | 8 (≈ 6.75 µM) | CC(C)C[C@@H]1NC(=O)[C@@H](Cc2ccccc2)NC(=O)[C@H](CCN)NC(=O)[C@@H](NC(=O)[C@H](CCN)NC(=O)[C@H](NC(=O)OCC2c3ccccc3-c3ccccc32)[C@@H](C)O)CCNC(=O)[C@@H]([C@@H](C)O)NC(=O)[C@H](CCN)NC(=O)[C@H](CCN)NC1=O | 
≥ 500 | ≥ 500 | ≥ 500 | CC(C)C[C@@H]1NC(=O)[C@@H](Cc2ccccc2)NC(=O)[C@H](CCN)NC(=O)[C@@H](NC(=O)[C@H](CCN)NC(=O)[C@H](NC(=O)[C@H](C)NC(=O)[C@@H](C)NC(=O)[C@H](C)NC(=O)[C@H](C)NC(=O)[C@@H](C)NC(=O)[C@H](C)N)[C@@H](C)O)CCNC(=O)[C@@H]([C@@H](C)O)NC(=O)[C@H](CCN)NC(=O)[C@H](CCN)NC1=O | 
8 (≈ 6.22 µM) | 16 (≈ 12.4 µM) | 4 (≈ 3.11 µM) | CC(C)C[C@@H]1NC(=O)[C@@H](Cc2ccccc2)NC(=O)[C@H](CCN)NC(=O)[C@@H](NC(=O)[C@H](CCN)NC(=O)[C@H](NC(=O)[C@H](CCN)NC(=O)OCC2c3ccccc3-c3ccccc32)[C@@H](C)O)CCNC(=O)[C@@H]([C@@H](C)O)NC(=O)[C@H](CCN)NC(=O)[C@H](CCN)NC1=O | 
12 (≈ 6.45 µM) | 3.1 (≈ 1.67 µM) |  | CCC(C)CCCCC(=O)N[C@@H](CC/N=C/c1ccc(N(C)C)cc1)C(=O)N[C@@H](C(=O)N[C@@H](CC/N=C/c1ccc(N(C)C)cc1)C(=O)N[C@H]1CCNC(=O)[C@@H]([C@@H](C)O)NC(=O)[C@H](CC/N=C/c2ccc(N(C)C)cc2)NC(=O)[C@H](CC/N=C/c2ccc(N(C)C)cc2)NC(=O)[C@H](CC(C)C)NC(=O)[C@@H](Cc2ccccc2)NC(=O)[C@H](CC/N=C\c2ccc(N(C)C)cc2)NC1=O)[C@@H](C)O (some centres undefined) | 
12 (≈ 6.93 µM) | 26 (≈ 15 µM) |  | CCC(C)CCCCC(=O)N[C@@H](CCNCc1ccc(C(C)C)cc1)C(=O)N[C@@H](C(=O)N[C@@H](CCN)C(=O)N[C@H]1CCNC(=O)[C@@H]([C@@H](C)O)NC(=O)[C@H](CCNCc2ccc(C(C)C)cc2)NC(=O)[C@H](CCNCc2ccc(C(C)C)cc2)NC(=O)[C@H](CC(C)C)NC(=O)[C@@H](Cc2ccccc2)NC(=O)[C@H](CCNCc2ccc(C(C)C)cc2)NC1=O)[C@@H](C)O (some centres undefined) | 
724 (≈ 418 µM) | 12 (≈ 6.92 µM) |  | CCC(C)CCCCC(=O)N[C@@H](CCNCc1ccc(O)c(OC)c1)C(=O)N[C@@H](C(=O)N[C@@H](CCN)C(=O)N[C@H]1CCNC(=O)[C@@H]([C@@H](C)O)NC(=O)[C@H](CCNCc2ccc(O)c(O)c2)NC(=O)[C@H](CCNCc2ccc(O)c(OC)c2)NC(=O)[C@H](CC(C)C)NC(=O)[C@@H](Cc2ccccc2)NC(=O)[C@H](CCNCc2ccc(O)c(OC)c2)NC1=O)[C@@H](C)O (some centres undefined) | 
5.5 (≈ 3.22 µM) | 2.8 (≈ 1.64 µM) |  | CCC(C)CCCCC(=O)N[C@@H](CC/N=C/c1ccc(O)c(OC)c1)C(=O)N[C@@H](C(=O)N[C@@H](CCN)C(=O)N[C@H]1CCNC(=O)[C@@H]([C@@H](C)O)NC(=O)[C@H](CC/N=C/c2ccc(O)c(OC)c2)NC(=O)[C@H](CC/N=C/c2ccc(O)c(OC)c2)NC(=O)[C@H](CC(C)C)NC(=O)[C@@H](CC(C)C)NC(=O)[C@H](CC/N=C/c2ccc(O)c(OC)c2)NC1=O)[C@@H](C)O (some centres undefined) | 
 |  |  | CCCCCCCC(=O)N[C@H](C(=O)N[C@H](C)C(=O)N[C@H]1CCNC(=O)[C@H]([C@@H](C)O)NC(=O)[C@H](CCN)NC(=O)[C@H](CCN)NC(=O)[C@H]([C@H](C)O)NC(=O)[C@@H](Cc2ccccc2)NC(=O)[C@H](CCN)NC1=O)[C@@H](C)O | 60
 |  |  | CCCCCCCC(=O)N[C@H](C(=O)N[C@@H](CCN)C(=O)N[C@H]1CCNC(=O)[C@H]([C@@H](C)O)NC(=O)[C@H](CCN)NC(=O)[C@H](CC)NC(=O)[C@H](CC(C)C)NC(=O)[C@@H](Cc2ccccc2)NC(=O)[C@H](CCN)NC1=O)[C@@H](C)O | 60
 |  |  | CCCCCCCC(=O)N[C@H](C(=O)N[C@@H](CCN)C(=O)N[C@H]1CCNC(=O)[C@H]([C@@H](C)O)NC(=O)[C@H](CCN)NC(=O)[C@H](CCN)NC(=O)[C@H](CC(C)C)NC(=O)[C@H](Cc2ccccc2)NC(=O)[C@H](CCN)NC1=O)[C@@H](C)O | 0
 |  |  | CCCCCCCC(=O)N[C@H](C(=O)N[C@@H](CCC(N)=O)C(=O)N[C@H]1CCNC(=O)[C@H]([C@@H](C)O)NC(=O)[C@H](CCN)NC(=O)[C@H](CCN)NC(=O)[C@H](CC(C)C)NC(=O)[C@@H](Cc2ccccc2)NC(=O)[C@H](CCN)NC1=O)[C@@H](C)O | 10
5 (≈ 3.2 µM) | 1.3 (≈ 0.831 µM) |  | CCC(C)CCCCC(=O)N[C@@H](CCNCc1ccccc1)C(=O)N[C@H](C(=O)N[C@@H](CCN)C(=O)N[C@H]1CCNC(=O)[C@H]([C@@H](C)O)NC(=O)[C@H](CCNCc2ccccc2)NC(=O)[C@H](CCNCc2ccccc2)NC(=O)[C@H](CC(C)C)NC(=O)[C@@H](Cc2ccccc2)NC(=O)[C@H](CCNCc2ccccc2)NC1=O)[C@@H](C)O (some centres undefined) | 
6.2 (≈ 3.81 µM) | 1.6 (≈ 0.983 µM) |  | CCC(C)CCCCC(=O)N[C@@H](CCNCc1ccc(O)cc1)C(=O)N[C@H](C(=O)N[C@@H](CCN)C(=O)N[C@H]1CCNC(=O)[C@H]([C@@H](C)O)NC(=O)[C@H](CCNCc2ccc(O)cc2)NC(=O)[C@H](CCNCc2ccc(O)cc2)NC(=O)[C@H](CC(C)C)NC(=O)[C@@H](Cc2ccccc2)NC(=O)[C@H](CCNCc2ccc(O)cc2)NC1=O)[C@@H](C)O (some centres undefined) | 
12 (≈ 7.08 µM) | 3.1 (≈ 1.83 µM) |  | CCC(C)CCCCC(=O)N[C@@H](CC/N=C/c1ccc(N(C)C)cc1)C(=O)N[C@H](C(=O)N[C@@H](CCN)C(=O)N[C@H]1CCNC(=O)[C@H]([C@@H](C)O)NC(=O)[C@H](CC/N=C/c2ccc(N(C)C)cc2)NC(=O)[C@H](CC/N=C/c2ccc(N(C)C)cc2)NC(=O)[C@H](CC(C)C)NC(=O)[C@@H](CC(C)C)NC(=O)[C@H](CC/N=C/c2ccc(N(C)C)cc2)NC1=O)[C@@H](C)O (some centres undefined) | 
5.5 (≈ 3.45 µM) | 1.4 (≈ 0.878 µM) |  | CCC(C)CCCCC(=O)N[C@@H](CCNCc1ccc(O)cc1)C(=O)N[C@H](C(=O)N[C@@H](CCN)C(=O)N[C@H]1CCNC(=O)[C@H]([C@@H](C)O)NC(=O)[C@H](CCNCc2ccc(O)cc2)NC(=O)[C@H](CCNCc2cccc(O)c2)NC(=O)[C@H](CC(C)C)NC(=O)[C@@H](CC(C)C)NC(=O)[C@H](CCNCc2ccc(O)cc2)NC1=O)[C@@H](C)O (some centres undefined) | 
3.1 (≈ 2.36 µM) | 0.7 (≈ 0.532 µM) | 2.18 (≈ 1.66 µM) | CCCCCCCC(=O)N[C@@H](CCN)C(=O)N[C@@H](C(=O)N[C@@H](CCN)C(=O)N[C@H]1CCNC(=O)[C@H]([C@@H](C)O)NC(=O)[C@H](CCNCCCCCC(C)CC)NC(=O)[C@H](CCN)NC(=O)[C@H](CC(C)C)NC(=O)[C@@H](Cc2ccccc2)NC(=O)[C@H](CCN)NC1=O)[C@@H](C)O (some centres undefined) | 
0.175 (≈ 0.129 µM) | 2.2 (≈ 1.63 µM) | 0.073 (≈ 0.054 µM) | CCCCCCCC(=O)N[C@@H](CCN)C(=O)N[C@H](C(=O)N[C@@H](CCN)C(=O)N[C@H]1CCNC(=O)[C@H]([C@@H](C)O)NC(=O)[C@H](CCNC(=O)[C@@H](N)Cc2ccc(O)cc2)NC(=O)[C@H](CCN)NC(=O)[C@H](CC(C)C)NC(=O)[C@@H](Cc2ccccc2)NC(=O)[C@H](CCN)NC1=O)[C@@H](C)O | 
0.77 (≈ 0.583 µM) | 5.65 (≈ 4.28 µM) | 0.416 (≈ 0.315 µM) | CCCCCCCC(=O)N[C@@H](CCN)C(=O)N[C@H](C(=O)N[C@@H](CCN)C(=O)N[C@H]1CCNC(=O)[C@H]([C@@H](C)O)NC(=O)[C@H](CCNC(=O)[C@H](N)CCSC)NC(=O)[C@H](CCN)NC(=O)[C@H](CC(C)C)NC(=O)[C@@H](Cc2ccccc2)NC(=O)[C@H](CCN)NC1=O)[C@@H](C)O | 
1.68 (≈ 1.3 µM) | 11.3 (≈ 8.75 µM) | 2.82 (≈ 2.18 µM) | CCCCCCCC(=O)N[C@@H](CCN)C(=O)N[C@H](C(=O)N[C@@H](CCN)C(=O)N[C@H]1CCNC(=O)[C@H]([C@@H](C)O)NC(=O)[C@H](CCNC(=O)[C@@H](N)CS)NC(=O)[C@H](CCN)NC(=O)[C@H](CC(C)C)NC(=O)[C@@H](Cc2ccccc2)NC(=O)[C@H](CCN)NC1=O)[C@@H](C)O | 
0.537 (≈ 0.436 µM) | 16 (≈ 13 µM) | 0.456 (≈ 0.37 µM) | CCCCCCCC(=O)N[C@@H](CCN)C(=O)N[C@H](C(=O)N[C@@H](CCN)C(=O)N[C@H]1CCNC(=O)[C@H]([C@@H](C)O)NC(=O)[C@H](CCNC(C)C)NC(=O)[C@H](CCN)NC(=O)[C@H](CC(C)C)NC(=O)[C@@H](Cc2ccccc2)NC(=O)[C@H](CCN)NC1=O)[C@@H](C)O [DIMETHYL DAB9 POLYMYXIN B] | 
1.54 (≈ 1.23 µM) | 22.6 (≈ 18.1 µM) | 1.53 (≈ 1.23 µM) | CCCCCCCC(=O)N[C@@H](CCN)C(=O)N[C@H](C(=O)N[C@@H](CCN)C(=O)N[C@H]1CCNC(=O)[C@H]([C@@H](C)O)NC(=O)[C@H](CCNC(=O)CO)NC(=O)[C@H](CCN)NC(=O)[C@H](CC(C)C)NC(=O)[C@@H](Cc2ccccc2)NC(=O)[C@H](CCN)NC1=O)[C@@H](C)O [HYDROXYACETYL DAB9 POLYMYXIN B] | 
0.173 (≈ 0.133 µM) | 2.8 (≈ 2.15 µM) | 0.032 (≈ 0.0245 µM) | CCCCCCCC(=O)N[C@@H](CCN)C(=O)N[C@H](C(=O)N[C@@H](CCN)C(=O)N[C@H]1CCNC(=O)[C@H]([C@@H](C)O)NC(=O)[C@H](CCNC(=O)C(N)CCCN)NC(=O)[C@H](CCN)NC(=O)[C@H](CC(C)C)NC(=O)[C@@H](Cc2ccccc2)NC(=O)[C@H](CCN)NC1=O)[C@@H](C)O (stereo partly drawn) [L-LYSYL DAB9 POLYMYXIN B] | 

Structure (SMILES) | MIC [1] [µg/mL] | MIC [2] [µg/mL] | MIC [3] [µg/mL] | GI [4] [square millimeter]
CCCCCCCC(=O)N[C@@H](CCN)C(=O)N[C@H](C(=O)N[C@@H](CCN)C(=O)N[C@H]1CCNC(=O)[C@H]([C@@H](C)O)NC(=O)[C@H](CCNC(=O)CCl)NC(=O)[C@H](CCN)NC(=O)[C@H](CC(C)C)NC(=O)[C@@H](Cc2ccccc2)NC(=O)[C@H](CCN)NC1=O)[C@@H](C)O [CHLOROACETYL DAB9 POLYMYXIN B] | 0.454 (≈ 0.359 µM) | 9.5 (≈ 7.5 µM) | 0.085 (≈ 0.0671 µM) | 
CCCCCCCC(=O)N[C@@H](CCN)C(=O)N[C@H](C(=O)N[C@@H](CCN)C(=O)N[C@H]1CCNC(=O)[C@H]([C@@H](C)O)NC(=O)[C@H](CCNC(=O)C(Cl)Cl)NC(=O)[C@H](CCN)NC(=O)[C@H](CC(C)C)NC(=O)[C@@H](Cc2ccccc2)NC(=O)[C@H](CCN)NC1=O)[C@@H](C)O [DICHLOROACETYL DAB9 POLYMYXIN B] | 1.54 (≈ 1.18 µM) | 0.82 (≈ 0.631 µM) | 0.995 (≈ 0.765 µM) | 
